Laboratory results from patent publication US20100204110A1, “USE OF A PEPTIDE AS A THERAPEUTIC AGENT” (priority 2007, published 2010).
Ends that are not written are not given here.

Key:
[1] = tested on: HIV-1IIIB; assay: HIV-1 antiviral assay in CEM-SS cells (MTS); format: cell-based; conditions: positive controls; CEM-SS cells plus HIV-1IIIB
[2] = tested on: hepatitis B virus (HBV) ayw strain; assay: HBV assay in HepG2-2.2.15 cells (TaqMan PCR of HBV DNA); format: cell-based; conditions: 10 micrograms per ml, six days
From the text: HepG2-2.2.15 is a stable cell line containing the hepatitis B virus (HBV) ayw strain genome (ATCC Cat. No. CRL-11997). Antiviral compounds blocking any late step of viral replication such as transcription, translation, pregenome encapsidation, reverse transcription, particle assembly and release can be identified and characterized using this cell line. In this assay, an active compound will reduce the production of secreted HBV from cells, measured by utilizing real time quantitative PCR (TaqMan) assay to directly and accurately measure HBV DNA copies.
HepG2-2.2.15 cells were plated in 96-well microtiter plates. After 16-24 hours the confluent monolayer of HepG2-2.2.15 cells was washed and the medium was replaced with complete medium containing test peptides—10 micrograms per ml—in duplicate. […] Six days following the initial administration of the peptides, the cell culture supernatants was collected, treated with pronase and DNAse and then used in a real-time quantitative TaqMan PCR assay. The PCR-amplified HBV DNA was detected in real-time by monitoring increases in fluorescence signals that result from the exonucleolytic degradation of a quenched fluorescence probe molecule that hybridizes to the mplified HBV DNA. […] Antiviral activity was calculated from the reduction in HBV DNA levels (% virus control). […]

[3] = tested on: spleen cells; assay: Th1/Th2 cytokine profiling assay (Ovalbumin-restimulated spleen cells, CBA Kit); conditions: 10 micrograms per ml; Ovalbumin restimulation; 72 hours
From the text: The Balb/c mice (originated in 1923, it is a popular strain and is used in many different research disciplines. Also classified as an inbred from the production of 20 or more successive brother-sister matings, the Balb/c mouse is albino and small in size) were immunized on Days 1, 15, and 29 with Ovalbumin (Ovalbumin is the main protein found in egg white, commonly used to stimulate an immunological reaction in test animals) in PBS (5 micrograms/injection). On day 50, spleens of the mice were harvested (3 weeks after last boost with Ovalbumin). Cells were cultured (2×10^5/well in triplicate) and incubated with culture medium or test peptides—10 micrograms per ml—for 30 min. Thereafter, additional Ovalbumin was added to the cells at 10 micrograms/ml for in vitro restimulation of the cells. 72 hours later, cell supernatants were harvested and assayed using the Becton Dickinson Mouse Th1/Th2 Cytokine CBA Kit. This kit can be used to measure Interleukin-2 (IL-2), Interleukin-4 (IL-4), Interleukin-5 (IL-5), Interferon-γ (IFN-γ), and Tumor Necrosis Factor-α (TNF-α) protein levels in a single sample. The kit performance has been optimized for analysis of physiologically relevant concentrations (pg/ml levels) of specific cytokine proteins in tissue culture supernatants and serum samples.

[4] = tested on: HUVEC; assay: Endothelial tube formation assay; conditions: 10 micrograms per ml, 20 hours, combination peptide 1:peptide 2 1.10 mole:0.90 mole
Experimental: The endothelial tube formation assay is based on the ability of endothelial cells to form three-dimensional capillary-like tubular structures when cultured on a gel of basement membrane extract. […] Pre-labeled HUVEC with Calcein AM were seeded in a 96-well culture plate coated with extracellular metrix (Chemicon international Cat. ECM625) and treated with test peptides—10 micrograms per ml—in full growth medium. Positive control was vehicle only. The endothelial cells were allowed to form tubes foe 20 hours and were then examined under an inverted fluorescent microscope. Duplicate wells for each treatment were photographed and quantitatevily analyzed for an average tubule length using image analysis software ImageProPlus. Raw data were expressed as average tubule lenghs in pixels±standard deviation. Statistic p values were computed using the Student's t-test.

[5] = tested on: HCMV strain AD169; assay: HCMV plaque formation assay in MRC-5 cells; conditions: 10 micrograms per ml, 7-10 days
[6] = tested on: Primary Human endothelial cells (HUVEC); assay: Endothelial cell migration assay; conditions: 10 micrograms per ml, 22 hours, combination peptide 1:peptide 2 0.95 mole:1.05 mole
Experimental: Primary Human endothelial cells (HUVEC) were seeded in insert chambers with 3 micrometer pore size of multi-transwell plate for 6 hours at 37° C. in Endothelial Cell Basal Medium (EBM) supplemented with 0.1% bovine serum albumin. Thereafter, designated concentration of testing peptides—10 micrograms per ml—was added in duplicate wells. The endothelia were allowed to migrate for 22 hours at 37° C., then, migrated cells were fixed and stained with Hoechst 33342 dye. Images of 3 fields per insert were taken and the number of migrated cells per field were quantified using the ImageProPlus software. Data were analyzed for the average number of the migrated cells and standard deviation of six data points for each treatment condition. […] Statistic p values were computed using the Student's t-test.

[7] = tested on: RAW 264.7 cells; assay: Phagocytosis assay (Fluorescein-labeled Escherichia coli, flow cytometry); conditions: 10 micrograms per ml, combination peptide 1 : peptide 2 1.10 mole : 0.90 mole
Experimental: RAW 264.7 (Mouse leukaemic monocyte macrophage cell line) cells were obtained from ATCC and grown in RPMI 1640 medium containing 10% FBS. Cells were incubated in 12×75 mm tubes at 37° C. with test peptides—10 micrograms per ml—for 30 min prior to adding Fluorescein-labeled Escherichia coli bacteria as the agent to be ingested. After the cells were incubated for additional 60 min at 37° C. and allowed to ingest the Fluorescein-labeled Escherichia coli bacteria, cells were fixed with 1% paraformaldehyde. The samples were then analyzed by flow cytometry to determine the amount of phagocytosis as a function of brightness (the greater the phagocytic activity, the more fluorescence in the macrophage population). Data are reported as % positive and the mean fluorescence intensity (MFI) of positively stained cells.

Molecule: Cc1cn([C@H]2C[C@H](N=[N+]=[N-])[C@@H](CO)O2)c(=O)[nH]c1=O [AZT]
- antiviral activity of positive control compounds (HIV-1) [1]: expected levels of antiviral activity

Molecule: CC(C)(C)NC(=O)[C@@H]1CN(Cc2cccnc2)CCN1C[C@@H](O)C[C@@H](Cc1ccccc1)C(=O)N[C@H]1c2ccccc2C[C@H]1O [indinavir]
- antiviral activity of positive control compounds (HIV-1) [1]: expected levels of antiviral activity

Molecule: Val-Tyr-Pro-Asn-Gly-Ala-Glu-Asp-Glu-Ser-Ala-Glu-Ala-Phe-Pro-Leu-Glu-Phe-OH (VYPNGAEDESAEAFPLEF-OH) [peptide 2]
- inhibition of HBV replication as compared to the virus control infection [2]: 37.6%
- IFNγ spleen cells; TH1 response (% of control) [3]: 114.7 % of control
- IL-2 spleen cells (% of control) [3]: 53.9 % of control
- IL-4 spleen cells; TH2 response (% of control) [3]: 140.5 % of control
- IL-5 spleen cells; TH2 response (% of control) [3]: 65.5 % of control
- TNF-a spleen cells; TH1 response (% of control) [3]: 118.8 % of control
- inhibition of the tube formation of human endothelial cells [4]: did not inhibit
- inhibition of HCMV plaque formation as compared to the virus control [5]: did not inhibit
- inhibition of the migration of human endothelial cells [6]: 38%
- increase on the phagocytic activity of murine macrophages [7]: 28.6%
